Measurements as given in PMC5391094, “Characterizing the anti-inflammatory and tissue protective actions of a novel Annexin A1 peptide” (PLoS ONE, 2017).
Several values for one entry are separate records, joined by “and”; a condition that tells them apart may be missing. Equal values may be shown once. Where no end group is shown, it is not given here.

How the values were obtained:
ALX = conditions: cited from earlier work
From the text: The ALX receptor is a G-protein coupled receptor that mediates the biological actions of a number of pro-resolving molecules including the essential fatty acid derived specialized pro-resolving mediators Resolvin D1, Resolvin D3 and Lipoxin A4 [32].

human ALX receptor = target: T1, human ALX receptor (Homo sapiens, UniProt P25090); assay: Competitive binding assay with [125I-Tyr]-Ac2-26 tracer on ALX-HEK transfected cells; conditions: HEK cells overexpressing human ALX, 1x10^6 cells/ml; tracer 50nM; peptide 0.1nM-10μM; 1h, 4°C; mean of 3-4 independent experiments; read-out: IC50, displacement of 125I labelled Ac2-26 from ALX receptor
T1 construct: expressed in transfected cells; host or cells: HEK cells
T1 sequence (P25090 1-351): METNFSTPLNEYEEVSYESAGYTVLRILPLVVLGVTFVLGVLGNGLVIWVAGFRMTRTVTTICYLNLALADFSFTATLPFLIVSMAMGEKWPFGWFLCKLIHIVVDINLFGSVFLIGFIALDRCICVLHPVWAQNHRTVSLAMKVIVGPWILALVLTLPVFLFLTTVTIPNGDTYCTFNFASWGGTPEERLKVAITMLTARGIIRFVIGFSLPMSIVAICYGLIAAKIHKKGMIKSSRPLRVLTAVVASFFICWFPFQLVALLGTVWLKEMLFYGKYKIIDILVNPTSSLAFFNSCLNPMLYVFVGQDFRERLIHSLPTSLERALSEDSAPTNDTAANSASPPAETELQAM
Experimental: Binding experiments were conducted as in [13]. Briefly FPR1-human embryonic kidney (HEK)–or ALX-HEK—transfected cells (1x10^6 cells/ml) were incubated with increasing concentrations of cold CR-AnxA1_2-50, CR-AnxA1_2-48 (0.1nM-10μM) or PBS and a fixed concentration (50nM) of [^125I-Tyr]-Ac2-26 for (1h, 4°C). Bound and unbound tracer were separated by filtration through Whatman GF/C glass microfibre filters (Kent, United Kingdom) using a vacuum manifold, and the amount of tracer bound to the cells was quantified by counting filters in a gamma-counter.

[1] = tested on: activated human neutrophils; assay: Neutrophil-mediated degradation (peptide remaining in incubations with activated human neutrophils); format: in vitro ADME; conditions: incubation with activated human neutrophils; compared to parent peptide CR-AnxA1_2-50; mean ± SEM of n = 4 distinct incubations
Experimental: Therefore, we designed a peptide that in addition to having a substitution of Valine25 to Leucine, which we previously found to confer resistance to proteinease-3 and neutrophil elastae, also lacked Alanines at positions 49 and 50 (Fig 1A).
Fig 1 CR-AnxA1_2-48 is resistant to neutrophil mediated cleavage and selectively binds the ALX receptor. (A) Aminoacid sequences for CR-AnxA1_2–50 and CR-AnxA1_2–48 (B) Plots depicting the amount of peptide remaining at the indicated intervals in incubations of human neutrophil with CR-AnxA1_2–50 or CR-AnxA1_2–48. Results are mean ± SEM of n = 4 distinct incubations with different neutrophil preparations. *p < 0.05 versus AnxA1_2–48 incubations. (C,D) Binding affinity of CR-AnxA1_2–48 to (C) human ALX-overexpressing and (D) FPR1-overexpressing HEK cells was assessed in a competitive binding assay using [^125I]–Ac2-26. (E) Agonist activity of CR-AnxA1_2–48 was investigated using β-arrestin stably expressing FPR2/ALX. Results for C-E are mean ± SEM of 3–4 independent experiments. TEXT PRINTED IN THE PICTURE: (C) CR-ANXA12-48: IC50= 20 nM

Substance | Binding affinity to ALX relative to FPR1 (ALX) | IC50 (human ALX receptor) | Resistance to neutrophil mediated cleavage (amount of peptide remaining) [1]
fMLF | about a log order lower | – | –
AMVSEFLKQAWFIENEEQEYVQTLKSSKGGPGSAVSPYPTFNPSSDV-NH2 [CR-AnxA1_2-48] | – | ~20 nM and 20 nM | significant increase in resistance to neutrophil mediated cleavage
